Columns and labels:
[1] = system: MCF-7; assay: Multicellular tumor spheroid (MCTS, 3D) formation; format: cell-based, human; conditions: MCF-7 MCTS
Protocol: The assay was carried out according to the method disclosed in Methods in Molecular Medicine, 2007, 140, 141-151.
The multicellular tumor spheroid (MCTS) model is one of the best-described 3D in vitro tumor model systems, which depicts many of the characteristics of tumor tissue and allows reproducible experiments, offering an excellent in vitro screening system. MCTS were propagated using the hanging drop method. Briefly, the cell monolayer was detached using trypsin-EDTA. Cell count was adjusted and 20 μL hanging droplets containing 1,000 cells/drop, were made in bacterial grade petridishes. These hanging drops were incubated for 24 h at 37° C. in a humidified atmosphere of 5% CO2. The MCTS thus generated were cultured in the presence or absence of varying concentrations (0.3 μM to 30 μM) of Compound A for 72 h.

[2] = system: MDA-MB-231; assay: Cell cycle progression and apoptosis by flow cytometry (sub-G1); format: cell-based, human; conditions: for % Apoptosis: 4.5 μM
Protocol: Time dependent effect of Compound A on cell cycle progression and apoptosis was evaluated in two breast cancer cell lines. The asynchronous human breast cancer cell lines MCF-7 (Her low, ER+, PR+, BRCA+/−allelic loss) and MDA-MB-231 cells were seeded in […] tissue culture flask at a density of 0.5×10^6 cells per flask in RPMI 1460 with 10% FCS. After 24 h, cells were treated with 4.5 μM of Compound A for 0, 24, 48 and 72 h. Both detached and adherent cells were harvested (trypsinised) at different time points as mentioned in Table 3. After washing in phosphate buffered saline (PBS), cells were fixed in ice-cold 70% ethanol and stored at −20° C. until further analysis.
Before analysis, cells were washed twice with PBS to remove the fixative and re-suspended in PBS containing 50 μg/mL propidium iodide and 50 μg/mL RNaseA. After incubation at room temperature (20-35° C.) for 20 min, cells were analyzed using flow cytometry. A Becton Dickinson FACS Calibur flow cytometer (BD, USA) was used for these studies. The argon ion laser set at 488 nm was used as an excitation source. Cells with DNA content between 2n and 4n were designated as being in G1, S and G2/M phases of the cell cycle, as defined by the level of red fluorescence. […] The number of cells in each cell cycle compartment was expressed as a percentage of the total number of cells present. The results are shown in Table 3 and graphically presented in FIG. 3A (MCF-7 cell lines) and FIG. 3B (MDA-MB-231 cell lines).
Comparison of the effect of Compound A and PARP inhibitor BSI-201 (Iniparib developed by Sanofi-Aventis. BSI-201 is prepared in-house) on cell cycle progression and apoptosis was evaluated in two TNBC cell lines. The asynchronous human TNBC cell lines MDA-MB-231 and MDA-MB-468 were seeded in […] tissue culture flask at a density of 0.5×10^6 cells per flask in RPMI 1460 with 10% FCS. After 24 h, cells were treated either with 1.5 and 3.0 μM of Compound A or 50 μM of PARP inhibitor BSI-201 for 72 h. After the incubation cells were harvested (trypsinised) and processed as given in example 6.

[3] = system: cyclin D1; assay: Western blot of cell cycle proteins in MDA-MB-231; format: cell-based, human; conditions: 1.5 μM and 5 μM, 24 h
Protocol: (§1) Correlation of PARP activity and cell cycle proteins cyclin D1, total Rb and pRb 780 were studied in two TNBC cell lines viz. MDA-MB-468 and MDA-MB-231. MDA-MB-231 and MDA-MB-468 cells were seeded in RPMI 1460 medium with 10% FCS in […] tissue culture flask and incubated for 24 h. These cells were treated at 1.5 μM and 5 μM Compound A for 24 h. The cells were harvested (trypsinised) and lysed using lysis buffer. Western blotting was carried out (Molecular Cancer […], 2007, 6, 918-925) using specific antibody to PAR, PARP, cyclin D1, CDK4 and pRb Ser 780.

[4] = system: CDK4; assay: Western blot of cell cycle proteins in MDA-MB-231; format: cell-based, human; conditions: 1.5 μM and 5 μM, 24 h
Protocol: as §1

[5] = system: pRb Ser 780; assay: Western blot of cell cycle proteins in MDA-MB-231; format: cell-based, human; conditions: 1.5 μM and 5 μM, 24 h
Protocol: as §1

[6] = system: HIF-1α; assay: HIF-1α reporter gene based assay (U251 HRE); format: cell-based; conditions: hypoxia (<1% O2), 0.01-10 μM, 20 h
Source text: 1) U251 HRE: The genetically engineered cells U251 HRE which stably express a recombinant vector in which the Luciferase reporter gene is under control of three copies of a canonical HRE. 2) U251 pGL3: A control cell line contains the firefly Luciferase reporter gene under control of the constitutively active SV40 promoter and enhancer that helps to exclude compounds that inhibit Luciferase expression in a nonspecific and/or HIF-1-independent fashion. These cells expressed high basal levels of Luciferase in normoxic conditions and slightly lower levels in hypoxic conditions.
U251 HRE cells were inoculated into 96 well white flat-bottomed plates at 10000-15000 cells/well in a volume of 180 μL and incubated for 24 h at 37° C., 5% CO2, and ambient O2. Compound A was tested at various concentrations viz. […] After 20 h incubation, the plates were removed and incubated at room temperature, 5% CO2, and ambient O2 for 1.5 h. 40 μL of Bright Glo Luciferase reagent (Promega™, USA) was added and after 3 min, luminescence was measured using a Polar Star Plate Reader (USA) in luminescence mode. Appropriate control cells (U251 pGL3) were treated identically, except that they were treated at 37° C., 5% CO2 and ambient O2. Compound toxicity was assayed using the MTS assay.

[7] = system: Bcl-2; assay: Western blot analysis in MDA-MB-231 cells; format: cell-based, human; conditions: 1.5 and 4.5 μM, 6, 24 and 30 h
Protocol: The Western blot assay was carried out according to the procedure disclosed in Molecular Cancer Therapeutics, 2007, 6, 918-925 with some modifications.
MCF-7 and MDA-MB-231 cells were seeded in RPMI 1460 medium with 10% FCS in […] tissue culture flask and incubated for 24 h. The cells were treated with Compound A at 1.5 and 4.5 μM. At various time points, i.e. 6, 24 and 30 h the cells were harvested or trypsinized and lysed using lysis buffer (Sigma Aldrich, USA). Protein content was estimated. Lysate was applied to Sodium Dodecyl Sulphate-Polyacrylamide Gel Electrophoresis (SDS-PAGE) followed by western blotting (Molecular Cancer Therapeutics, 2007, 6, 918-925). Western blotting was done using specific antibodies to Bcl-2 and actin. The results are depicted in FIG. 4.

Compound: CN1CC[C@@H](c2c(O)cc(O)c3c(=O)cc(-c4ccccc4Cl)oc23)[C@@H]1CO.Cl [Compound A, (+)-trans-2-(2-Chloro-phenyl)-5,7-dihydroxy-8-(2-hydroxymethyl-1-methyl-pyrrolidin-3-yl)-chromen-4-one hydrochloride]
- concentration from which spheroid formation was arrested ([1]; 0.3 μM to 30 μM, 72 h): ≥ 3 µM
- size of MCTS formed ([1]; 1 μM): smaller as compared to control
- % apoptosis at 72 h ([2]; 1.5 μM, 72 h): 27.45%
- % apoptosis at 72 h ([2]; 3 μM, 72 h): 41.53%
- % Apoptosis ([2]; 0 h): 1%
- % Apoptosis ([2]; 24 h): 45%
- % Apoptosis ([2]; 48 h): 85%
- % Apoptosis ([2]; 72 h): 85%
- cyclin D1 level [3]: dose dependent decrease
- CDK4 level [4]: dose dependent decrease
- pRb level [5]: dose dependent decrease
- expression of HIF-1α (luciferase reporter) [6]: effectively blocked the expression of HIF-1α in a dose dependent manner
- expression of antiapoptotic protein Bcl-2 [7]: significant down regulation was observed at 30 h
